Blank lines part the entries; values can stand above or below the compound they belong to.
Experiments:
[1] = Control experiments: availability of the species in alkaline aqueous medium without using the reactor; format: physicochemical; conditions: acid solubilized directly in aqueous phase, no reactor
Procedure: Previously, the back titration procedure was internalized and optimized (Example 1), ensuring that the reproducibility of the measurements was adequate (standard deviation values below 10%, for example) and that the recoveries were close to what was expected based on the purity of the reagents (i.e., close to or above 90%). […] Control experiments were performed (measuring the availability of the species in an aqueous medium, without using the reactor) by solubilizing the organic acid directly in the aqueous phase and titrating a 10.0 mL aliquot; the same way, experiments were performed in the reactor based on the standardization of heptol and salinity already discussed (3.5%).

[2] = Partition equilibrium under the influence of salinity (NaCl), glass reactor, neutralization titration; format: physicochemical
Procedure: The variation in salinity (and its effect on acidic species) is due to the large variation in salinity found between the portions of bottom-hole water, middle-well water and surface water. Thus, systems with salinity (i.e., NaCl) between 3.5 and 30% (m·v^−1) were tested in a glass reactor, and neutralization titration was performed (in triplicate analysis), as previously described. Furthermore, the experimental results were generated in triplicate, using 99% NaCl (Sigma-Aldrich) with five acidic species.

[3] = Partition equilibrium with addition of calcium and strontium salts to the aqueous phase; format: physicochemical; conditions: for Effect of strontium ions on migration to the aqueous phase: strontium 400-2600 mg·L^−1
Procedure: The addition of salts to the reaction system is of fundamental importance when one intends to mimic field conditions. In this sense, in addition to continuing the study of the salinity effect (Example 4), the insertion of salts containing Ca^2+ and Sr^2+ ions, known to be present in seawater, was tested. To this end, the projects were based on the literature (Zheng, J. et al. Offshore produced water management: A review of current practice and challenges in harsh/Arctic environments. Mar. Pol. Bul. 2016, 104, 7-19) and four concentrations of each of the two ions were evaluated (400.0, 1200.0, 2600.0 and 9000.0 mg·L^−1), maintaining salinity at 3.5% (m·v^−1).
In short, the experimental results were generated in triplicate, using 99% NaCl to add salinity to the aqueous fraction and PA calcium chloride and PA strontium chloride to add calcium and strontium, respectively.
The addition of calcium and strontium to the reaction system, in the form of salts, aims at mimicking the real scenario in which both species are present (regardless of the salinity of the medium), especially in the well condition. This study aimed at understanding the effect (on the migration of acids to the organic phase) of this ion in the system also at concentrations higher than 10 mM. Finally, the experiments (in triplicate) with divalent strontium ions followed the same rationale.

[4] = Partition equilibrium in the presence of surfactants (TBA, CTA, TMA); format: physicochemical
Text: The presence of chemical compounds usually added in the chain of unit operations of oil extraction and production, such as demulsifiers and surfactants, can affect the partition equilibrium of species in this water/oil system. In order to understand the extent of this effect, as well as discern the relevance of the chemical structure on this effect, the following items were chosen: • Dissolvan 961 (Clariant), composed of oil hydrocarbons (CAS 918-811-1) and ethanol (CAS 64-17-5); • Dissolvan 974 (Clariant), composed of EO-PO block polymer poly adducts and Bisphenol-A-diglycidyl ether (CAS 68123-18-2) and ethanol (CAS 64-17-5); • Tetrabutylammonium chloride (CAS 1112-67-0), 97% purity; • Cetyltrimethylammonium chloride (CAS 112-02-7), 25% in water; and • Trimethylammonium chloride (CAS 593-81-7), 98% purity.
For this study, the experiments (in triplicate) used between 100.0 and 1000.0 mg·L^−1 of each compound, comparing the results with control tests (absence of the component), all with constant salinity at 3.5% (m·v^−1). Finally, neutralization titration with a standardized NaOH titrant solution was used to determine the effect on the partition equilibrium for four acidic species (the same as in the other examples, except for dicyclohexylacetic acid).
Considering the study with surfactants, the (individual) addition of three species to the control system was evaluated (tetrabutylammonium chloride (TBA), tetramethylammonium chloride (TMA) and cetyltrimethylammonium chloride (CTA)). For this purpose, the surfactants have distinct chemical structures, namely the size of the side chain, and their eventual effect on the partition equilibrium of the acidic species was evaluated.

[5] = Partition equilibrium under the influence of salinity (NaCl), glass reactor, neutralization titration; format: physicochemical; conditions: Salinity 0 (%, m · m^−1) NaCl
[6] = Partition equilibrium in the presence of demulsifiers (Dissolvan 961, Dissolvan 974)
[7] = Partition equilibrium in reactor pressurized with CO2, in presence and absence of alkalinity (NaHCO3, Na2CO3), back titration
Procedure: In the initial tests, 100 mL of heptol and 300 mL of water (with or without salinity) were used, with the addition of acidic species in the organic phase, in order to verify migration to the aqueous phase. As a rule, the system was kept under agitation at 500 rpm for 8 min, followed by rest for 10 min and, finally, collection of 50.0 mL aliquots of the aqueous phase for titrimetric analysis.
A 316 stainless steel alloy reactor (Parr®) (capacity for 600 mL and operational up to 20 MPa pressure) was used. For this purpose, a temperature range between 25° C. and 80° C. and pressure between 0.1 MPa and 1.0 MPa were used, and the reactor was pressurized with CO2. Thus, the results were compared (in terms of migration of the acidic species (%, mol) by means of back titrations) and the influence of pressure and temperature on the partition was estimated, as well as possible synergistic effects with the sources of alkalinity added to the aqueous phase.

[8] = Salinity 3.5 (%, m · m^−1) NaCl
[9] = Salinity 18.0 (%, m · m^−1) NaCl
[10] = Salinity 30.0 (%, m · m^−1) NaCl
[11] = Calcium 400 mg · L^−1, salinity 3.5%
[12] = Calcium 1200 mg · L^−1, salinity 3.5%
[13] = Calcium 2600 mg · L^−1, salinity 3.5%
[14] = Strontium 400 mg · L^−1, salinity 3.5%
[15] = Strontium 1200 mg · L^−1, salinity 3.5%
[16] = Strontium 2600 mg · L^−1, salinity 3.5%

- Availability (reference value) ([1]; Na2CO3 + NaHCO3 (3.48×10^−5 mol)): 100.0 % mol
- Availability (reference value) ([1]; NaHCO3 (3.45×10^−5 mol)): 100.0 % mol
- Salting out effect (reduction in the number of moles contained in the aqueous phase) ([2]; 30% (m·v^−1) NaCl versus tests without salinity): ~38%
- Migration [2, 8]: 13.2 %, mol
- Migration [2, 9]: 15.4 %, mol
- Migration [2, 10]: 15.4 %, mol
- Migration ([3]; Absence of ions, salinity 3.5%): 10.4 %, mol
- Migration [3, 11]: 5.5 %, mol
- Migration [3, 12]: 4.7 %, mol
- Migration [3, 13]: 3.4 %, mol
- Migration [3, 14]: 4.4 %, mol
- Migration [3, 15]: 5.3 %, mol
- Migration [3, 16]: 4.8 %, mol
- Effect of calcium ion on migration to the aqueous phase ([3]; calcium up to the maximum study concentrations): no variation in migration
- Effect of strontium ions on migration to the aqueous phase [3]: decreased migration
- Migration ([4]; Absence of surfactant, salinity 3.5%): 10.4 %, mol
- Migration ([4]; CTA100 (cetyltrimethylammonium chloride 100 mg · L^−1)): 11.5 %, mol
- Migration ([4]; CTA1000 (1000 mg · L^−1)): 52.6 %, mol
- Migration ([4]; TBA100 (tetrabutylammonium chloride 100 mg · L^−1)): 22.0 %, mol
- Migration ([4]; TBA1000 (1000 mg · L^−1)): 21.6 %, mol
- Migration ([4]; TMA100 (trimethylammonium chloride 100 mg · L^−1)): 9.4 %, mol
- Migration ([4]; TMA1000 (1000 mg · L^−1)): 9.1 %, mol
- Increase in migration to the aqueous phase with CTA ([4]; surfactant CTA, 1000 mg·L^−1): ~500%
- Increase in the tendency to migrate to the aqueous phase with TBA ([4]; surfactant TBA, noticeable from 100 mg·L^−1): 100%
- Effect of TMA on partition equilibrium ([4]; surfactant TMA): no observable effect
- Migration [5]: 24.4 %, mol
- Increase in migration to the aqueous phase with demulsifier ([6]; 50 mg·L^−1 of D961): approximately 100%
- Migration ([6]; Absence of ions (no demulsifier), salinity 3.5%): 10.4 %, mol
- Migration ([6]; D961 50 mg · L^−1): 21.0 %, mol
- Migration ([6]; D961 100 mg · L^−1): 21.0 %, mol
- Migration ([6]; D961 1000 mg · L^−1): 23.0 %, mol
- Migration ([6]; D974 50 mg · L^−1): 18.0 %, mol
- Migration ([6]; D974 100 mg · L^−1): 16.0 %, mol
- Migration ([6]; D974 1000 mg · L^−1): 14.6 %, mol
- Migration ([7]; 25° C. and 1.0 MPa CO2, no alkalinity): did not generate quantifiable results
- Migration ([7]; Na2CO3 + NaHCO3, 25° C. and 0.1 MPa): 100.0 % mol
- Migration ([7]; Na2CO3 + NaHCO3, 25° C. and 1.0 MPa CO2): 100.0 % mol
- Migration ([7]; Na2CO3 + NaHCO3, 80° C. and 1.0 MPa CO2): 100.0 % mol
- Migration ([7]; NaHCO3, 25° C. and 0.1 MPa): 100.0 % mol
- Migration ([7]; NaHCO3, 25° C. and 1.0 MPa CO2): 100.0 % mol
- Migration ([7]; NaHCO3, 80° C. and 1.0 MPa CO2): 100.0 % mol
- Migration trend in the presence of alkalinity individually and together with pressure/temperature ([7]; NaHCO3 or Na2CO3 + NaHCO3, 0.1 or 1.0 MPa, 25 or 80 °C): 100%
- Migration ([7]; Reference (heptol + 3.5% NaCl), no alkalinity): 10.3 % mol
Structure (SMILES): O=C(O)CCCCc1ccccc1 [5-Phenylpentanoic Acid, 5-phenylpentanoic acid]

- Migration to aqueous medium, approximate level over the salinity study ([2]; 0-30% NaCl): around 20%
- Effect of the addition of salinity on migration ([2]; 3.5-30% NaCl, 95% reliability): no significant effect
- Migration [2, 8]: 18.1 %, mol
- Migration [2, 9]: 19.9 %, mol
- Migration [2, 10]: 21.5 %, mol
- Migration ([3]; Absence of ions, salinity 3.5%): 22.1 %, mol
- Migration [3, 11]: 20.7 %, mol
- Migration [3, 12]: 19.6 %, mol
- Migration [3, 13]: 31.8 %, mol
- Migration [3, 14]: 15.8 %, mol
- Migration [3, 15]: 20.0 %, mol
- Migration [3, 16]: 21.5 %, mol
- Migration ([3]; before addition of calcium): 22 % (m·v^−1)
- Effect of strontium ions on migration to the aqueous phase [3]: no effect
- Migration [5]: 22.0 %, mol
Structure (SMILES): O=C(O)C(C1CCCCC1)C1CCCCC1 [Dicyclohexylacetic Acid, dicyclohexylacetic acid]

— US20250231157A1, “METHOD FOR DETERMINING THE PARTITION OF NAPHTHENIC ACIDS FROM A PRODUCTION WATER MIMICKING SYSTEM AND MIMICKING SYSTEM” (PETRÓLEO BRASILEIRO S.A. – PETROBRAS, priority 2023, published 2025)
